Test results taken from PubChem BioAssay AID330 (DTP/NCI, 2004).
Several values for one entry are separate records, joined by “and”; a condition that tells them apart may be missing. Identical values can stand only once. Toxic doses and inconclusive results are not listed. Rule for the calls: active = survival T/C of 150% or more; inactive = T/C below 125% in these data.

Tested on: P388 leukemia ip, CD2F1 mice, survival T/C
Assay: NCI In Vivo Anticancer Drug Screen. Data for tumor model P388 Leukemia (intraperitoneal) in CD2F1 (CDF1) mice
Conditions: endpoint: median survival time, higher = longer survival
In short: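 Mice carrying the transplanted tumor received test compound or vehicle. Survival was recorded in each group, and the value is the treated-group measurement divided by that of the vehicle-treated control group.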

[1] = dose: 6.25 mg/kg/injection, schedule: Q01DX009 (ip), vehicle: saline
[2] = dose: 12.5 mg/kg/injection, schedule: Q01DX009 (ip), vehicle: saline
[3] = dose: 25.0 mg/kg/injection, schedule: Q01DX009 (ip), vehicle: saline
[4] = dose: 50.0 mg/kg/injection, schedule: Q01DX005 (ip), vehicle: Klucel (hydroxypropylcellulose) (HPC)
[5] = dose: 100.0 mg/kg/injection, schedule: Q01DX005 (ip), vehicle: Klucel (hydroxypropylcellulose) (HPC)
[6] = dose: 200.0 mg/kg/injection, schedule: Q01DX005 (ip), vehicle: Klucel (hydroxypropylcellulose) (HPC)
[7] = dose: 50.0 mg/kg/injection, schedule: Q01DX009 (ip), vehicle: Klucel (hydroxypropylcellulose) (HPC)
[8] = dose: 100.0 mg/kg/injection, schedule: Q01DX009 (ip), vehicle: Klucel (hydroxypropylcellulose) (HPC)
[9] = dose: 200.0 mg/kg/injection, schedule: Q01DX009 (ip), vehicle: Klucel (hydroxypropylcellulose) (HPC)
[10] = dose: 50.0 mg/kg/injection, schedule: Q01DX005 (ip), vehicle: saline with Tween-80
[11] = dose: 100.0 mg/kg/injection, schedule: Q01DX005 (ip), vehicle: saline with Tween-80
[12] = dose: 200.0 mg/kg/injection, schedule: Q01DX005 (ip), vehicle: saline with Tween-80
[13] = dose: 50.0 mg/kg/injection, schedule: Q01DX009 (ip), vehicle: saline
[14] = dose: 60.0 mg/kg/injection, schedule: Q01DX005 (ip), vehicle: saline with Tween-80
[15] = dose: 120.0 mg/kg/injection, schedule: Q01DX005 (ip), vehicle: saline with Tween-80
[16] = dose: 240.0 mg/kg/injection, schedule: Q01DX005 (ip), vehicle: saline with Tween-80

Measured: T/C

[Br][Pt].[NH-]CC[N-]CC[NH-]
inactive: dose: 1.56 mg/kg/injection, schedule: Q01DX009 (ip), vehicle: saline 102 % of control | dose: 3.13 mg/kg/injection, schedule: Q01DX009 (ip), vehicle: saline 100 % of control | [1] 100 % of control | [2] 97 % of control | [3] 97 % of control

Cc1ccc(S(=O)(=O)N(N)CCC#N)cc1
inactive: [4] 94 % of control | [5] 97 % of control | [6] 96 % of control

Cc1ccnc(N=Cc2ccccc2O)c1
inactive: [7] 104 % of control | [8] 100 % of control | [9] 100 % of control

O=S(=O)(F)c1cccc(Cl)c1C[P+](c1ccccc1)(c1ccccc1)c1ccccc1
inactive: dose: 15.0 mg/kg/injection, schedule: Q01DX005 (ip), vehicle: saline with Tween-80 112 % of control

CC(=O)OC1N(C(C)=O)C(SC23CC4CC(CC(C4)C2)C3)C(C)=CC1(C)OC(C)=O (configuration not stated)
inactive: [7] 111 % of control | [8] 110 % of control | [9] 105 % of control

NC(=S)c1ccc(N=Cc2ccccc2)cc1
inactive: dose: 12.5 mg/kg/injection, schedule: Q01DX001 (ip), vehicle: Klucel (hydroxypropylcellulose) (HPC) 101 % of control | dose: 25.0 mg/kg/injection, schedule: Q01DX001 (ip), vehicle: Klucel (hydroxypropylcellulose) (HPC) 101 % of control | dose: 50.0 mg/kg/injection, schedule: Q01DX001 (ip), vehicle: Klucel (hydroxypropylcellulose) (HPC) 95 % of control

O=C(/C(Br)=C/c1ccccc1)/C(Br)=C/c1ccccc1
inactive: dose: 12.5 mg/kg/injection, schedule: Q01DX001 (ip), vehicle: saline with Tween-80 100 % of control | dose: 25.0 mg/kg/injection, schedule: Q01DX001 (ip), vehicle: saline with Tween-80 100 % of control | dose: 50.0 mg/kg/injection, schedule: Q01DX001 (ip), vehicle: saline with Tween-80 88 % of control

Cn1c2ccccc2c(=O)c2cc(NC(=O)/C=C/C(=O)Nc3ccc4c(c3)c(=O)c3ccccc3n4C)ccc21
inactive: [10] 102 % of control | [11] 105 % of control | [12] 106 % of control

Cc1c/c(=N\O)c2c(=O)c([N+](=O)[O-])coc2n1O
inactive: [7] 100 % of control | [8] 100 % of control | [9] 97 % of control

O=C(O)C1CSC(c2ccc(Cl)cc2)N1 (configuration not stated)
inactive: dose: 50.0 mg/kg/injection, schedule: Q01DX009 (ip), vehicle: suspension in saline 95 % of control | dose: 100.0 mg/kg/injection, schedule: Q01DX009 (ip), vehicle: suspension in saline 95 % of control | dose: 200.0 mg/kg/injection, schedule: Q01DX009 (ip), vehicle: suspension in saline 95 % of control and 96 % of control

Cc1ccc(NC(=O)CO)cc1Cl
inactive: [13] 103 % of control | dose: 100.0 mg/kg/injection, schedule: Q01DX009 (ip), vehicle: saline 103 % of control | dose: 200.0 mg/kg/injection, schedule: Q01DX009 (ip), vehicle: saline 116 % of control

CC(C)=CCN1CCC2(C)c3cc(O)ccc3CCC2C1 (configuration not stated)
inactive: [4] 94 % of control | [5] 104 % of control | [6] 94 % of control

COc1ccc(C(=O)c2cc3c(ccc4ccccc43)oc2=O)cc1
inactive: [1] 98 % of control | [2] 96 % of control | [3] 90 % of control

CCCSc1nc2c(N)nc(-c3ccccc3)nc2nc1N
inactive: dose: 50.0 mg/kg/injection, schedule: Q01DX009 (ip), vehicle: saline with Tween-80 108 % of control | dose: 100.0 mg/kg/injection, schedule: Q01DX009 (ip), vehicle: saline with Tween-80 105 % of control | dose: 200.0 mg/kg/injection, schedule: Q01DX009 (ip), vehicle: saline with Tween-80 105 % of control

OCc1nc2ccccc2[nH]1
inactive: dose: 25.0 mg/kg/injection, schedule: Q01DX009 (ip), vehicle: Klucel (hydroxypropylcellulose) (HPC) 96 % of control | [7] 97 % of control | [8] 96 % of control | [9] 114 % of control

CC(C)CC1SCC(=O)N1c1nncs1 (configuration not stated)
inactive: [14] 103 % of control | [15] 97 % of control | [16] 98 % of control

Cc1[nH]c2ccccc2c1SCc1ccccc1
inactive: dose: 25.0 mg/kg/injection, schedule: Q01DX009 (ip), vehicle: saline + alcohol 94 % of control | dose: 50.0 mg/kg/injection, schedule: Q01DX009 (ip), vehicle: saline + alcohol 100 % of control | dose: 100.0 mg/kg/injection, schedule: Q01DX009 (ip), vehicle: saline + alcohol 99 % of control

Nc1nc2n(O)cc(-c3ccccc3)nc-2c(=O)n1
inactive: dose: 10.0 mg/kg/injection, schedule: Q01DX009 (ip), vehicle: saline with Tween-80 89 % of control | dose: 20.0 mg/kg/injection, schedule: Q01DX009 (ip), vehicle: saline with Tween-80 101 % of control | dose: 40.0 mg/kg/injection, schedule: Q01DX009 (ip), vehicle: saline with Tween-80 92 % of control

CCOC(=S)SCC(=O)C1(O)Cc2c(O)c3c(c(O)c2C(OC2CC(N)C(O)C(C)O2)C1)C(=O)c1c(OC)cccc1C3=O (configuration not stated)
inactive: dose: 1.56 mg/kg/injection, schedule: Q01DX009 (ip), vehicle: other 120 % of control | dose: 3.13 mg/kg/injection, schedule: Q01DX009 (ip), vehicle: other 123 % of control | dose: 37.5 mg/kg/injection, schedule: Q04DX003 (ip), vehicle: other 121 % of control | dose: 75.0 mg/kg/injection, schedule: Q04DX003 (ip), vehicle: other 94 % of control | dose: 150.0 mg/kg/injection, schedule: Q04DX003 (ip), vehicle: other 99 % of control

CCCCOC(=O)/C=C/C(=O)N1CC(C)N(C(=O)/C=C/C(=O)OCCCC)CC1C (configuration not stated)
inactive: [4] 105 % of control | [5] 100 % of control | [6] 100 % of control

O=c1c(Br)cc2c(-c3ccccc3)c3cc(Br)c(O)c(Br)c3oc-2c1Br
inactive: [14] 97 % of control | [15] 97 % of control | [16] 110 % of control

CC(=O)OCC1=C(C)CC(C(C)C2CCC3C4CC5OC56C(OC(C)=O)C(N5CC5)CC(=O)C6(C)C4CCC23C)OC1=O (configuration not stated)
inactive: dose: 3.12 mg/kg/injection, schedule: Q01DX005 (ip), vehicle: Klucel (hydroxypropylcellulose) (HPC) 100 % of control | dose: 6.25 mg/kg/injection, schedule: Q01DX005 (ip), vehicle: Klucel (hydroxypropylcellulose) (HPC) 98 % of control | dose: 12.5 mg/kg/injection, schedule: Q01DX005 (ip), vehicle: Klucel (hydroxypropylcellulose) (HPC) 104 % of control | dose: 25.0 mg/kg/injection, schedule: Q01DX005 (ip), vehicle: Klucel (hydroxypropylcellulose) (HPC) 112 % of control | [4] 110 % of control

Cn1/c(=N\N)sc2ccc(S(=O)(=O)O)cc21
inactive: [7] 97 % of control | [8] 103 % of control | [9] 105 % of control

Cc1coc2c1[C@H]1OC(=O)C3=CCC[C@H](C2)[C@@]31C
inactive: dose: 7.5 mg/kg/injection, schedule: Q01DX009 (ip), vehicle: saline with Tween-80 100 % of control | dose: 15.0 mg/kg/injection, schedule: Q01DX009 (ip), vehicle: saline with Tween-80 100 % of control | dose: 30.0 mg/kg/injection, schedule: Q01DX009 (ip), vehicle: saline with Tween-80 101 % of control | dose: 60.0 mg/kg/injection, schedule: Q01DX009 (ip), vehicle: saline with Tween-80 98 % of control

Nc1nnc(Cc2ccc(Cl)cc2)o1
inactive: [14] 95 % of control | [15] 105 % of control | [16] 105 % of control

Cc1cc2c(C)c(-c3ccccc3)c(=O)oc2c(C#N)c1C
inactive: dose: 15.0 mg/kg/injection, schedule: Q01DX005 (ip), vehicle: Klucel (hydroxypropylcellulose) (HPC) 104 % of control | dose: 30.0 mg/kg/injection, schedule: Q01DX005 (ip), vehicle: Klucel (hydroxypropylcellulose) (HPC) 95 % of control | dose: 60.0 mg/kg/injection, schedule: Q01DX005 (ip), vehicle: Klucel (hydroxypropylcellulose) (HPC) 90 % of control and 95 % of control

c1nc(NCCCN2CCOCC2)c2c3c(sc2n1)CCCC3
inactive: [10] 109 % of control | [11] 101 % of control | [12] 100 % of control

O=C1CCCCC1C(=O)C(F)(F)F (configuration not stated)
inactive: dose: 50.0 mg/kg/injection, schedule: Q01DX009 (ip), vehicle: saline + Tween-80 + alcohol 116 % of control | dose: 100.0 mg/kg/injection, schedule: Q01DX009 (ip), vehicle: saline + Tween-80 + alcohol 106 % of control

C(Oc1nc(OCC2CO2)nc(OCC2CO2)n1)C1CO1 (configuration not stated)
inactive: [2] 108 % of control | [3] 105 % of control | [13] 101 % of control and 108 % of control
